# From patent publication US12351580B2, “NLRP3 modulators” (Innate Tumor Immunity, Inc., priority 2017, dated 2025)
# pEC50: −log10 of the molar value. Structures can show the parent of a compound that is named as a salt.
# Biological target: T1, hNLRP3 (Homo sapiens, UniProt Q96P20)
# T1 construct: THP-1 cells were purchased from the American Type Culture Collection; host or cells: THP-1 cells, PMA-differentiated
# Assay: Measurement of IL-1β production in PMA-differentiated THP-1 cells (hNLRP3 agonist; ELISA, alternative and hTRF procedures)
# Format: cell-based
# How it was run: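 PMA-differentiated THP-1 cells (PMA […] 24 h, 20 μg/ml overnight, or 50 ng/ml overnight, by procedure) replated in RPMI with 2% FBS and exposed to compound (e.g. 100–0.1 μM, 1% DMSO; hTRF format top 10 μM) for 4 h, 2 h, or 2 h respectively. Supernatant IL-1β measured by ELISA, or by hTRF with antibodies diluted 1:40.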
# T1 sequence (Q96P20 whole entry): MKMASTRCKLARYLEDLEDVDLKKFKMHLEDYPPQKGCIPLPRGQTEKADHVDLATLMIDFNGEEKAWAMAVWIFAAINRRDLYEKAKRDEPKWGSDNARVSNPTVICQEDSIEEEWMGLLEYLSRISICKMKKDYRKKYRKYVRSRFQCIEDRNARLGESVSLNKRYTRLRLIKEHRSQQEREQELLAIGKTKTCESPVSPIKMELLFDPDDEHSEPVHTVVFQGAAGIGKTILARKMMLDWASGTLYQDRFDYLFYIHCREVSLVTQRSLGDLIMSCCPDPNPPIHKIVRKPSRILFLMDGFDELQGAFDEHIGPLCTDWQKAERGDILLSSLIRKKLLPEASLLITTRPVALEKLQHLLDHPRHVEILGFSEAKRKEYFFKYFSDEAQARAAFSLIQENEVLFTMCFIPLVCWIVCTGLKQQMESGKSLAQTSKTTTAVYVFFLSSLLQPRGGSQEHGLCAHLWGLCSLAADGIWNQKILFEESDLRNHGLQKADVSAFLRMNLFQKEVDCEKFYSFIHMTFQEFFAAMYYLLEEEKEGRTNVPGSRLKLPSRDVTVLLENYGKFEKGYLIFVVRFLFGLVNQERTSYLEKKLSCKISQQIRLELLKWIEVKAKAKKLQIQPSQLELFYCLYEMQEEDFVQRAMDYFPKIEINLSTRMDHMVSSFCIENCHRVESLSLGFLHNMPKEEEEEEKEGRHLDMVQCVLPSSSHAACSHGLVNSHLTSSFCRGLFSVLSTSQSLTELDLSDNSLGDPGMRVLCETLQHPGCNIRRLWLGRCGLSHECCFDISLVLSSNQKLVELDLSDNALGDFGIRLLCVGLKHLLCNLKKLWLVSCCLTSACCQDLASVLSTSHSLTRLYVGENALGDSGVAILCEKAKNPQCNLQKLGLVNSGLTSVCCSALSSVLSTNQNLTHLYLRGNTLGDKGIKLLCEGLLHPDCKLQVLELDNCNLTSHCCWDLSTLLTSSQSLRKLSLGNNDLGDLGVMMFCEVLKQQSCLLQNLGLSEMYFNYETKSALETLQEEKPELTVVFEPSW
row,SMILES,pEC50
1,"CCNCc1nc2c(N)nc3cc(-c4cc[nH]n4)ccc3c2[nH]1 [Compound 101, 2-[(Ethylamino)methyl]-7-(1H-pyrazol-3-yl)-1H-imidazo[4,5-c]quinolin-4-amine hydrochloride]",6.57
2,"CC(=O)N(C)Cc1nc2c(N)nc3cc(-n4cccn4)ccc3c2[nH]1 [Compound 102, N-((4-Amino-7-(1H-pyrazol-1-yl)-1H-imidazo[4,5-c]quinolin-2-yl)methyl)-N-methylacetamide]",5.80
3,CN(Cc1nc2c(N)nc3cc(-n4cccn4)ccc3c2[nH]1)S(C)(=O)=O [Compound 119],5.86
4,CN(Cc1nc2c(N)nc3cc(-c4cc[nH]n4)ccc3c2[nH]1)C(=O)C1CC1 [Compound 120],5.77
5,CCN(Cc1nc2c(N)nc3cc(-c4cc[nH]n4)ccc3c2n1C)C(C)=O [Compound 121],5.74
6,CCC(=O)N(C)Cc1nc2c(N)nc3cc(-c4cc[nH]n4)ccc3c2[nH]1 [Compound 122],5.85
7,CCN(Cc1nc2c(N)nc3cc(-c4cc[nH]n4)ccc3c2[nH]1)S(C)(=O)=O [Compound 124],5.62
8,CCC(=O)N(CC)Cc1nc2c(N)nc3cc(-c4cc[nH]n4)ccc3c2[nH]1 [Compound 125],5.68
9,CCN(Cc1nc2c(N)nc3cc(-c4cc[nH]n4)ccc3c2[nH]1)C(=O)NC [Compound 128],5.54
10,CC(=O)N(C)Cc1nc2c(N)nc3cc(-c4cc[nH]n4)ccc3c2[nH]1 [Compound 129],5.44
11,CCN(Cc1nc2c(N)nc3cc(-n4cccn4)ccc3c2[nH]1)C(N)=O [Compound 130],5.48
12,NCc1nc2c(N)nc3cc(-c4cc[nH]n4)ccc3c2[nH]1 [Compound 131],5.46
13,CCN(Cc1nc2c(N)nc3cc(-n4nccn4)ccc3c2[nH]1)C(C)=O [Compound 132],5.46
14,CC(c1nc2c(N)nc3cc(-c4cccnc4)ccc3c2[nH]1)N1CCCC1=O (stereo not shown) [Compound 138],5.17
15,CC(=O)N(Cc1nc2c(N)nc3cc(-c4cc[nH]n4)ccc3c2[nH]1)C(C)C [Compound 140],5.14
16,Nc1nc2ccc(Cl)cc2c2[nH]c(CN3CCCC3=O)nc12 [Compound 141],5.05
17,CC(C)(C)OC(=O)NCc1nc2c(N)nc3cc(-c4cc[nH]n4)ccc3c2[nH]1 [Compound 142],5.04
18,Nc1nc2cc(Cl)ccc2c2[nH]c(CN3CCCC3=O)nc12 [Compound 143],5.03
19,Nc1nc2cc(-c3ccc(Cl)nc3)ccc2c2[nH]c(CN3CCCC3=O)nc12 [Compound 153],4.92
20,CCNCc1nc2c(N)nc3cc(OC)ccc3c2[nH]1 [Compound 154],4.79
21,CCN(Cc1nc2c(N)nc3cc(-c4ncc[nH]4)ccc3c2[nH]1)C(=O)OC(C)(C)C [Compound 155],4.76
22,Nc1nc2cc(-n3ncc4ccccc43)ccc2c2[nH]c(CN3CCCC3=O)nc12 [Compound 157],4.63

# Results, then the molecule that gave them:
row,pEC50,SMILES
1,4.61,"CCN(Cc1nc2c(N)nc3cc(OC)ccc3c2[nH]1)C(C)=O [Compound 158, N-((4-Amino-7-methoxy-1H-imidazo[4,5-c]quinolin-2-yl)methyl)-N-ethylacetamide]"
2,4.59,CCN(Cc1nc2c(N)nc3cc(Cl)c(Cl)cc3c2[nH]1)C(C)=O [Compound 159]
3,4.38,CCNCc1nc2c(N)nc3cc(-c4ncc[nH]4)ccc3c2[nH]1 [Compound 162]
4,6.15,"CCN(Cc1nc2c(N)nc3cc(-c4cc[nH]n4)ccc3c2[nH]1)CC(C)C [Compound 453, 2-{[ethyl(2-methylpropyl)amino]methyl}-7-(1H-pyrazol-3-yl)-1H-imidazo[4,5-c]quinolin-4-amine]"
5,6.13,"CCN(CC)C(=O)N(CC)Cc1nc2c(N)nc3cc(-c4cc[nH]n4)ccc3c2[nH]1 [Compound 454, 1-{[4-amino-7-(1H-pyrazol-3-yl)-1H-imidazo[4,5-c]quinolin-2-yl]methyl}-1,3,3-triethylurea]"
6,5.70,"CCN(Cc1nc2c(N)nc3cc(-c4cc[nH]n4)ccc3c2[nH]1)C(=O)N1CCOCC1 [Compound 455, N-{[4-amino-7-(1H-pyrazol-3-yl)-1H-imidazo[4,5-c]quinolin-2-yl]methyl}-N-ethylmorpholine-4-carboxamide]"
7,5.66,"CCN(Cc1nc2c(N)nc3cc(-c4cc[nH]n4)ccc3c2[nH]1)C(=O)NC(C)(C)C [Compound 456, 1-{[4-amino-7-(1H-pyrazol-3-yl)-1H-imidazo[4,5-c]quinolin-2-yl]methyl}-3-tert-butyl-1-ethylurea]"
8,5.18,"CCNC(=O)N(CC)Cc1nc2c(N)nc3cc(-c4cc[nH]n4)ccc3c2[nH]1 [Compound 457, 1-{[4-amino-7-(1H-pyrazol-3-yl)-1H-imidazo[4,5-c]quinolin-2-yl]methyl}-1,3-diethylurea]"
9,5.68,"CCN(Cc1nc2c(N)nc3cc(-c4cc[nH]n4)ccc3c2[nH]1)S(=O)(=O)N(C)C [Compound 458, 2-{[(dimethylsulfamoyl)(ethyl)amino]methyl}-7-(1H-pyrazol-3-yl)-1H-imidazo[4,5-c]quinolin-4-amine]"
10,5.17,"CCN(Cc1nc2c(N)nc3cc(-c4cc[nH]n4)ccc3c2[nH]1)S(=O)(=O)C(C)C [Compound 459, N-{[4-amino-7-(1H-pyrazol-3-yl)-1H-imidazo[4,5-c]quinolin-2-yl]methyl}-N-ethylpropane-2-sulfonamide]"
11,5.82,"CCCS(=O)(=O)N(CC)Cc1nc2c(N)nc3cc(-c4cc[nH]n4)ccc3c2[nH]1 [Compound 460, N-{[4-amino-7-(1H-pyrazol-3-yl)-1H-imidazo[4,5-c]quinolin-2-yl]methyl}-N-ethylpropane-1-sulfonamide]"
12,5.26,"CCNCc1nc2c(N)nc3cc(-c4ccn[nH]4)ccc3c2n1CCO [Compound 462, 2-[4-Amino-2-[(ethylamino)methyl]-7-(1H-pyrazol-5-yl)-1H-imidazo[4,5-c]quinolin-1-yl]ethan-1-ol]"
13,6.66,"CCn1c(CN2CCCC2=O)nc2c(N)nc3cc(-c4cccs4)ccc3c21 [Compound 463, 1-{[4-amino-1-ethyl-7-(thiophen-2-yl)-1H-imidazo[4,5-c]quinolin-2-yl]methyl}pyrrolidin-2-one]"
14,6.62,"CCNCc1nc2c(N)nc3cc(-c4ccn[nH]4)ccc3c2n1CC [Compound 464, 1-ethyl-2-[(ethylamino)methyl]-7-(1H-pyrazol-5-yl)-1H-imidazo[4,5-c]quinolin-4-amine]"
15,6.00,"CCn1c(CN2CCCC2=O)nc2c(N)nc3cc(-n4cccn4)ccc3c21 [Compound 465, 1-{[4-amino-1-ethyl-7-(1H-pyrazol-1-yl)-1H-imidazo[4,5-c]quinolin-2-yl]methyl}pyrrolidin-2-one]"
16,5.96,"CCn1c(CN2CCCC2=O)nc2c(N)nc3cc(-c4ccn[nH]4)ccc3c21 [Compound 466, 1-{[4-amino-1-ethyl-7-(1H-pyrazol-5-yl)-1H-imidazo[4,5-c]quinolin-2-yl]methyl}pyrrolidin-2-one]"
17,5.92,"CCNCc1nc2c(N)nc3cc(-n4cccn4)ccc3c2n1CC [Compound 467, 1-ethyl-2-((ethylamino)methyl)-7-(1H-pyrazol-1-yl)-1H-imidazo[4,5-c]quinolin-4-amine]"
18,5.68,"CCNCc1nc2c(N)nc3cc(-c4cccs4)ccc3c2n1CC [Compound 468, 1-ethyl-2-[(ethylamino)methyl]-7-(thiophen-2-yl)-1H-imidazo[4,5-c]quinolin-4-amine]"
19,6.17,"Nc1nc2cc(-c3cccs3)ccc2c2c1nc(CN1CCCC1=O)n2CCO [Compound 469, 1-{[4-amino-1-(2-hydroxyethyl)-7-(thiophen-2-yl)-1H-imidazo[4,5-c]quinolin-2-yl]methyl}pyrrolidin-2-one]"
20,6.16,"CCC(=O)N(CC)Cc1nc2c(N)nc3cc(-c4cccs4)ccc3c2n1CCO [Compound 470, N-{[4-amino-1-(2-hydroxyethyl)-7-(thiophen-2-yl)-1H-imidazo[4,5-c]quinolin-2-yl]methyl}-N-ethylpropanamide]"
21,5.92,"CCNCc1nc2c(N)nc3cc(-c4cccs4)ccc3c2n1CCO [Compound 471, 2-{4-amino-2-[(ethylamino)methyl]-7-(thiophen-2-yl)-1H-imidazo[4,5-c]quinolin-1-yl}ethan-1-ol]"
22,6.37,"CCN(Cc1nc2c(N)nc3cc(-c4cccs4)ccc3c2n1CC)C(C)=O [Compound 472, N-{[4-amino-1-ethyl-7-(thiophen-2-yl)-1H-imidazo[4,5-c]quinolin-2-yl]methyl}-N-ethylacetamide]"
23,6.66,"CCC(=O)N(CC)Cc1nc2c(N)nc3cc(-c4ccn[nH]4)ccc3c2n1CC [Compound 473, N-{[4-amino-1-ethyl-7-(1H-pyrazol-5-yl)-1H-imidazo[4,5-c]quinolin-2-yl]methyl}-N-ethylpropanamide]"
24,5.92,"CCN(Cc1nc2c(N)nc3cc(-c4ccn[nH]4)ccc3c2n1CC)C(C)=O [Compound 474, N-{[4-amino-1-ethyl-7-(1H-pyrazol-5-yl)-1H-imidazo[4,5-c]quinolin-2-yl]methyl}-N-ethylacetamide]"
25,4.64,"CCC(=O)N(CC)Cc1nc2c(N)nc3cc(-c4ccn[nH]4)ccc3c2n1CCO [Compound 475, N-{[4-amino-1-(2-hydroxyethyl)-7-(1H-pyrazol-5-yl)-1H-imidazo[4,5-c]quinolin-2-yl]methyl}-N-ethylpropanamide]"
26,5.21,"CCN(Cc1nc2c(N)nc3cc(-n4cccn4)ccc3c2n1CCO)C(C)=O [Compound 476, N-{[4-amino-1-(2-hydroxyethyl)-7-(1H-pyrazol-1-yl)-1H-imidazo[4,5-c]quinolin-2-yl]methyl}-N-ethylacetamide]"
27,5.20,"CCNCc1nc2c(N)nc3cc(-n4cccn4)ccc3c2n1CCO [Compound 477, 2-[4-amino-2-[(ethylamino)methyl]-7-(1H-pyrazol-1-yl)-1H-imidazo[4,5-c]quinolin-l-yl]ethan-1-ol]"
